{"source": "paper PMC11750672", "about": "“The in vivo metabolic pathway of Deg-AZM and in vitro investigations into the contribution of drug metabolizing enzymes and drug transporters in the drug interactions of Deg-AZM, a clinical-stage new transgelin agonist” (Frontiers in Pharmacology, 2025)", "key": {"[1]": {"assay": "Excretion and material balance in rats (urine, feces 0-24 h)", "format": "in vivo", "conditions": "through the kidneys and urine", "experimental": "The plasma samples at 0.167 h, 0.5 h, 3 h and 8 h after administration were obtained from the study of tissue distribution in rats ([Gu et al., 2024]). Urine, feces and bile samples at 0–24 h after administration were obtained from the excretion study of a single gavage administration of 25 mg/kg Deg-AZM in rats ([Gu et al., 2024]).\nThe types and proportions of metabolites in the excretion pathway were elucidated in this study. […] Based on the peak area in this study, the total amount of metabolites in urine and feces of rats was 0.589 times and 9.96 times that of the original form of Deg-AZM, respectively. The total amount of Deg-AZM excreted in its original form and various metabolites in urine and feces was 23.7% and 19.8% of the administered dose, respectively, with a material balance coefficient of 43.5%. Deg-AZM was mainly excreted in the form of its original form M0 (cumulative excretion fraction of 14.9%) and metabolite M2 (cumulative excretion fraction of 5.33%) through the kidneys and urine, and in the form of metabolite M1-2 (cumulative excretion fraction of 4.29%) and M2 (cumulative excretion fraction of 3.93%) through the intestines and feces. […] It is necessary to obtain standard samples of the main metabolites for accurate quantification or use isotope tracing techniques to further improve material balance research in the clinical stage."}, "CYP3A": {"system": "CYP3A", "assay": "HLM phenotyping assay with CYP3A inhibitor ketoconazole", "format": "in vitro ADME, human", "conditions": "1 μM, HLM 0.5 mg/mL, NADPH, 90 min, with 1 µM ketoconazole", "experimental": "Deg-AZM (1 μM) was treated with pooled HLM (0.5 mg/mL) and NADPH (1 mM) for 90 min with or without seven specific inhibitors (10 µM furafylline for CYP1A2, 10 µM ticlopidine for CYP2B6, 5 µM montelukast for CYP2C8, 10 µM sulfaphenazole for CYP2C9, 10 µM ticlopidine for CYP2C19, 2.5 µM quinidine for CYP2D6, 1 µM ketoconazole for CYP3A). Isoform-selective probe substrates, 10 µM phenacetin for CYP1A2, 20 µM bupropion for CYP2B6, 2 µM amodiaquine for CYP2C8, 5 µM diclofenac for CYP2C9, 20 µM S-mephenytoin for CYP2C19, 5 µM bufuralol for CYP2D6, 2 µM midazolam for CYP3A4, were used as positive controls."}, "CYP1A2": {"molecular_target": "T1, CYP1A2 (Homo sapiens, UniProt P05177)", "T1 construct": "from tissue; host or cells: human liver microsomes", "T1 sequence (P05177 1-516)": "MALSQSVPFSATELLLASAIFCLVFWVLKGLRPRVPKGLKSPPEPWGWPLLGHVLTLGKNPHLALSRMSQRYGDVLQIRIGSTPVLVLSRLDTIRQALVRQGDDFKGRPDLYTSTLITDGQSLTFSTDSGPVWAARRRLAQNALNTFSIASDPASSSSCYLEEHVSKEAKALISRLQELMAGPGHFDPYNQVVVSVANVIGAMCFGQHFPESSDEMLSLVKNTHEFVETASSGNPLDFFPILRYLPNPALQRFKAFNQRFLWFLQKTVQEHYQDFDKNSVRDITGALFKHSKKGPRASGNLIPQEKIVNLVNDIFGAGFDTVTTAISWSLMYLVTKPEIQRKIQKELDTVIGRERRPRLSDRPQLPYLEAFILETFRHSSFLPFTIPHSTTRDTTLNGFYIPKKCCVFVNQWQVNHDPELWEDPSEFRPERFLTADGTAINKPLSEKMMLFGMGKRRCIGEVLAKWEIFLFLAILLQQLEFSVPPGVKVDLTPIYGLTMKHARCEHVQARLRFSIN", "assay": "CYP inhibition in HLMs", "format": "in vitro ADME", "conditions": "HLM 0.5 mg/mL, probe phenacetin, 20 min", "experimental": "(§1) CYP inhibition potential of Deg-AZM was assessed in NADPH-fortified HLMs (0.5 mg/mL for CYP1A2, CYP2B6, CYP2C19 and CYP2D6 system, 0.035 mg/mL for CYP2C9 system, 0.05 mg/mL for CYP3A4 system, and 0.025 mg/mL for CYP2C8 system) using CYP probe substrates (same as the positive controls in HLM phenotyping assays). Deg-AZM in triplicates (0, 0.2, 0.6, 2.0, 6.0, 20, and 60 μM) was treated with each probe of CYP1A2 (20 min), CYP2B6 (20 min), CYP2C8 (10 min), CYP2C9 (60 min), CYP2C19 (45 min), CYP2D6 (30 min) and CYP3A4 (15 min). Probe substrate metabolites were analyzed by LC-MS/MS and the peak area ratios of analytes to internal standard (Indapamide) were calculated. The activity of the CYP450 enzyme subtype is directly proportional to the concentration of the corresponding probe substrate metabolites. The average of the measured values of each group was calculated, the control tube value was set as 100%, the residual probe substrate metabolites was calculated in the presence of positive inhibitors and Deg-AZM at series concentration. IC50 values were calculated by the dose-response model (nonlinear regression) in GraphPad Prism software."}, "CYP2D6": {"molecular_target": "T2, CYP2D6 (Homo sapiens, UniProt P10635)", "T2 construct": "from tissue; host or cells: human liver microsomes", "T2 sequence (P10635 whole entry)": "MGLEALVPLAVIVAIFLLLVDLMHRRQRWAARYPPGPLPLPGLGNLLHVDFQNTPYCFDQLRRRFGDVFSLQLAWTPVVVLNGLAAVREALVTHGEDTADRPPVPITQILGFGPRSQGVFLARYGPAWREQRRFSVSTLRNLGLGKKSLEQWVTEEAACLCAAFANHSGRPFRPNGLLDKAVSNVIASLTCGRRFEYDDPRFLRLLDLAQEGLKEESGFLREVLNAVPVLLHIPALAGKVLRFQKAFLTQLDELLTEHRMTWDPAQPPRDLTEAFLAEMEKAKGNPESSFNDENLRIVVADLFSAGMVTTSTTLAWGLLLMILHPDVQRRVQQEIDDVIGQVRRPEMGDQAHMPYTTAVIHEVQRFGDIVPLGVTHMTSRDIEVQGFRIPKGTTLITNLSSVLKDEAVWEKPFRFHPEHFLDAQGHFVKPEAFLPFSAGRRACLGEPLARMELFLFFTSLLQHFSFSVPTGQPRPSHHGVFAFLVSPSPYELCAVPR", "assay": "CYP inhibition in HLMs", "format": "in vitro ADME", "conditions": "HLM 0.5 mg/mL, probe bufuralol, 30 min", "experimental": "as §1"}, "CYP3A4": {"molecular_target": "T3, CYP3A4 (Homo sapiens, UniProt P08684)", "T3 construct": "from tissue; host or cells: human liver microsomes", "T3 sequence (P08684 whole entry)": "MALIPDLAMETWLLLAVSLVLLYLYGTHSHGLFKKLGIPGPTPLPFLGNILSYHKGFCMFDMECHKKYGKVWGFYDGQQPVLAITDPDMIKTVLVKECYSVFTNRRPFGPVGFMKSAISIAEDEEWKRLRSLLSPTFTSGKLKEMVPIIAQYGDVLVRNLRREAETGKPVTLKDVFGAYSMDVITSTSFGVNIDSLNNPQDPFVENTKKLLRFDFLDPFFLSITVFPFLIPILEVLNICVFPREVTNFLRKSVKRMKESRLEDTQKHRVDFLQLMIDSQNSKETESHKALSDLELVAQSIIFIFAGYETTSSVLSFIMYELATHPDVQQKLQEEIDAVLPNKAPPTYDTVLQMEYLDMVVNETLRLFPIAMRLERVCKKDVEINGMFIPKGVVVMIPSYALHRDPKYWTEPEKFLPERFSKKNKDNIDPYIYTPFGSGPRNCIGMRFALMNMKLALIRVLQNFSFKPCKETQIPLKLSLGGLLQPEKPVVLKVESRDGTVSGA", "assay": "CYP inhibition in HLMs", "format": "in vitro ADME", "conditions": "HLM 0.05 mg/mL, probe midazolam, 15 min", "experimental": "as §1"}}}
{"molecule": "CCC1OC(=O)C(C)C(O)C(C)C(O)C(C)(O)CC(C)CN(C)C(C)C(O)C1(C)O", "note": "(centres unmarked) [Deg-AZM, Deglycosylated azithromycin]", "values": [{"measurement": "Cumulative excretion fraction, urine", "setting": "[1]", "result": 14.9, "unit": "%"}, {"measurement": "Deg-AZM remaining", "setting": "CYP3A", "result": 93.4, "unit": "%"}, {"measurement": "IC50", "setting": "CYP1A2", "result": "> 60", "unit": "µM"}, {"measurement": "IC50", "setting": "CYP2D6", "result": 7.89, "unit": "µM"}, {"measurement": "IC50", "setting": "CYP3A4", "result": "> 60", "unit": "µM"}]}
